This note sets out measurements from patent US8476265B2, “Compounds-801” (AstraZeneca AB, priority 2010, dated 2013).

Assay [1] addresses T1, Adrenergic β2 (Homo sapiens, UniProt P07550).
T1 construct: Adherent H292 cells are removed from tissue culture flasks by treatment with Accutase™ cell detachment solution; endogenous in cells; host or cells: H292 cells
Nature of the assay: Adrenergic β2 mediated cAMP production in H292 cells, single concentration 1 μM. It counts as cell-based. As to conditions: NCI-H292, 1 μM compound, cAMP as percentage of the maximum response generated by 1E-07M formoterol, read-out: β2 % effect @1 uM. Here is the method: The following experimental procedure was used to measure the beta-2% effect at 1 μM for the compounds of Examples 99-175. Adrenergic p2 Mediated cAMP Production Cell Preparation
H292 cells are grown in 225 cm2 flasks incubator at 37° C., 5% CO2 in RPMI medium containing 10% (v/v) FBS (foetal bovine serum) and 2 mM L-glutamine.
Compounds are prepared by an initial first dilution into DMSO to give 1 mM stock concentration. This is followed by a 1 in 10 dilution of the stock concentration (10 μl stock compound +90 μl DMSO) to give 0.1 mM compound. A compound addition plate is prepared by making a further 1 in 25 dilution in assay buffer (HBSS solution containing 10 mM HEPES pH7.4 and 5 mM glucose) containing 4% dimethylsulfoxide. The final compound concentration in assay is 1 μM.
Adherent H292 cells are removed from tissue culture flasks by treatment with Accutase™ cell detachment solution for 15 minutes. Flasks are incubated for 15 minutes in a humidified incubator at 37° C., 5% CO2. Detached cells are re-suspended in RPMI media (containing 10% (v/v) FBS and 2 mM L-glutamine) at 0.1×10^6 cells per mL. 10000 cells in 100 μL are added to each well of a tissue-culture-treated 96-well plate and the cells incubated overnight in a humidified incubator at 37° C., 5% CO2. The culture media is removed and cells are washed twice with 100 μL assay buffer and replaced with 50 μL assay buffer (HBSS solution containing 10 mM HEPES pH7.4 and 5 mM glucose). Cells are rested at room temperature for 20 minutes after which time 25 μL of rolipram (1.2 mM made up in assay buffer) is added. Cells are incubated with rolipram for 10 minutes after which time 25 μl test compounds are added and the cells are incubated for 60 minutes at room temperature. The final rolipram concentration in the assay is 300 μM and final vehicle concentration is 1% (v/v) dimethylsulphoxide. The reaction is stopped by removing supernatants, washing once with 100 μL assay buffer and replacing with 50 μL lysis buffer. The cell monolayer is frozen at −80° C. for 30 minutes (or overnight).
AlphaScreen™ cAMP Detection
The concentration of cAMP (cyclic adenosine monophosphate) in the cell lysate is determined using AlphaScreen™ methodology. The frozen cell plate is thawed for 20 minutes on a plate shaker then 10 μL of the cell lysate is transferred to a 96-well white plate. 40 μl of mixed AlphaScreen™ detection beads (containing equal volumes of donor beads (pre-incubated with biotinylated cAMP in the dark for 30 minutes) and acceptor beads is added to each well and the plate incubated at room temperature for 3 hours in the dark. The AlphaScreen™ signal is measured using an EnVision spectrophotometer (Perkin-Elmer Inc.) with the recommended manufacturer's settings. Concentration of cAMP produced per well were calculated with reference to the cAMP standard curve determined in the same experiment and expressed as a percentage of the maximum response generated by 1E-07M formoterol.

The target in assay [2] is T2, human muscarinic acetylcholine M3 receptor (Homo sapiens, UniProt P20309).
T2 construct: expressed in transfected cells; host or cells: CHO-K1 (Chinese Hamster Ovary) cell membranes
The assay is described as follows: Muscarinic 3 receptor binding assay ([3H]NMS competition, SPA), single concentration 1 μM. As to conditions: 1 μM compound; % inhibition specific [3H]-NMS binding. Here is the method:
The following experimental procedure was used to determine the M3% inhibition at 1 μM of the compounds of Examples 99-175
Muscarinic 3 Receptor Binding Assay
The activity (% inhibition specific binding) of compounds on the M3 receptor is determined by competition binding of [^3H]N-methyl scopolamine (NMS) to CHO-K1 (Chinese Hamster Ovary) cell membranes expressing the human muscarinic acetylcholine M3 receptor (M3-ACh) in a scintillation proximity assay (SPA) format. SPA beads are precoated with membranes and then incubated at 2 mg of beads per well with 1 μM compound of the invention, [^3H]NMS at 0.1 nM, quarter Kd (experimentally determined dissociation constant) and assay buffer (20 mM HEPES pH 7.4 containing 5 mM MgCl2 and 0.1% (w/v) bovine serum albumin). The assay is conducted in a final volume of 200 μL, in the presence of 1% (v/v) dimethyl sulphoxide (DMSO). Total binding of [^3H]NMS is determined in the absence of competing compound and non-specific binding of [^3H]NMS is determined in the presence of 1 μM atropine. The plates are incubated for 16 hours at room temperature and then read on Wallac Microbeta™ using a normalised ^3H protocol. The compound activity at 1 μM, defined as % inhibition specific [^3H]-NMS binding, is determined.

The target in assay [3] is T1, Adrenergic β2. The assay is described as follows: Adrenergic β2 mediated cAMP production in H292 cells (AlphaScreen), concentration response. The note with it: for EC50: 60 min, 300 μM rolipram, read-out: β2 pEC50 (converted); for β2 Intrinsic Activity: fraction relative to the maximum activity determined for formoterol. In kind it is cell-based. An outline of the steps: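 Intracellular cAMP in lysates read by AlphaScreen, calibrated with cAMP standards; curves fitted for pEC50, with intrinsic activity as a fraction of formoterol's maximum. Agonist exposure 60 min at room temperature after 10 min rolipram (300 μM final), 1% DMSO, HEPES-buffered HBSS pH 7.4.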

Assay [4] deals with T2, human muscarinic acetylcholine M3 receptor. The assay is described as follows: Muscarinic 3 receptor binding assay ([3H]NMS competition, SPA), pIC50. As to conditions: [3H]NMS 0.1 nM, CHO-K1 cell membranes expressing human M3 receptor. The method, boiled down:
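SPA beads precoated with human M3-expressing CHO-K1 membranes were incubated 16 h at room temperature with serially diluted compound and 0.1 nM [3H]NMS (pH 7.4 HEPES buffer, MgCl2, BSA, 1% DMSO). Atropine (1 μM) defined non-specific binding; pIC50 is the 50% reduction in specific binding.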

T1 sequence (P07550 whole entry): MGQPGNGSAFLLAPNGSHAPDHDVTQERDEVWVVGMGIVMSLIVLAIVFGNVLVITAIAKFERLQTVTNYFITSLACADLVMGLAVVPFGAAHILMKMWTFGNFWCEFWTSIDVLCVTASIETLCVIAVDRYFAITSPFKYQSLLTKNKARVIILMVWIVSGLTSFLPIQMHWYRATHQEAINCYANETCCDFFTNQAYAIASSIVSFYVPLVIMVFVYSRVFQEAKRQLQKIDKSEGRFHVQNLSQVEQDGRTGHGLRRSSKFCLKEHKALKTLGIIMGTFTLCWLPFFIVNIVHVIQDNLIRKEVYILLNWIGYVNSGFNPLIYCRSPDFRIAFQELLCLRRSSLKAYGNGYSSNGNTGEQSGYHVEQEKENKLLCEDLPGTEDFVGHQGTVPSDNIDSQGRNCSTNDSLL
T2 sequence (P20309 whole entry): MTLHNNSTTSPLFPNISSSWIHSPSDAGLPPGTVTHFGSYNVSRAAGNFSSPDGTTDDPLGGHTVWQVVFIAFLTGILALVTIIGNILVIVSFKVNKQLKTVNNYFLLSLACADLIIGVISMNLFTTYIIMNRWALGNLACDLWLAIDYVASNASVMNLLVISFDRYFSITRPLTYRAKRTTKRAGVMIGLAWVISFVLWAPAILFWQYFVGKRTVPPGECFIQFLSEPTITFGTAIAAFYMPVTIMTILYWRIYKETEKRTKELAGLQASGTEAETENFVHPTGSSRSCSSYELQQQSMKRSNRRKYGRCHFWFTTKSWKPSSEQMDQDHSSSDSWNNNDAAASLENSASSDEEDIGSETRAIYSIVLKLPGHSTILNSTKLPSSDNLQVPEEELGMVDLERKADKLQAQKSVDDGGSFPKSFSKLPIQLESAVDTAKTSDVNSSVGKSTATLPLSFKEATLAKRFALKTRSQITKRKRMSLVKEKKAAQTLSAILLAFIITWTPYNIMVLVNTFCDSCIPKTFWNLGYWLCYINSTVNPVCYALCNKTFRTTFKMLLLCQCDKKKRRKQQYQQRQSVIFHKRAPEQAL

`O=C1COc2c(CCNCCN(C(=O)CCOCCc3cccc(CN4CCC5(CC4)CN(C(=O)c4c(F)cccc4F)CCO5)c3)C3CCCCC3)ccc(O)c2N1` [Example 163, N-Cyclohexyl-3-(3-((4-(2,6-difluorobenzoyl)-1-oxa-4,9-diazaspiro[5.5]undecan-9-yl)methyl)phenethoxy)-N-(2-(2-(5-hydroxy-3-oxo-3,4-dihydro-2H-benzo[b][1,4]oxazin-8-yl)ethylamino)ethyl)propanamide]: at Adrenergic β2 [1], the percent of formoterol maximum response at 1 µM was 97%. In addition, in assay [2], the inhibition at 1 µM is 98%.

For the compound `O=C1COc2c(CCNCCN(C(=O)CCOCCc3cccc(CN4CCC5(CC4)CN(C(=O)c4[nH]nc6c4CCCC6)CCO5)c3)C3CCCCC3)ccc(O)c2N1` [Example 123, N-Cyclohexyl-N-(2-(2-(5-hydroxy-3-oxo-3,4-dihydro-2H-benzo[b][1,4]oxazin-8-yl)ethylamino)ethyl)-3-(3-((4-(4,5,6,7-tetrahydro-2H-indazole-3-carbonyl)-1-oxa-4,9-diazaspiro[5.5]undecan-9-yl)methyl)phenethoxy)propanamide], at Adrenergic β2 [1], the percent of formoterol maximum response at 1 µM stood at 97%. Further, the inhibition at 1 µM in assay [2] amounted to 99%.

Turning to `O=C1COc2c(CCNCCN(C(=O)CCOCCc3cccc(CN4CCC5(CC4)CN(C(=O)[C@@H](O)Cc4ccccc4)CCO5)c3)C3CCCCC3)ccc(O)c2N1` [Example 134, (S)-N-Cyclohexyl-N-(2-(2-(5-hydroxy-3-oxo-3,4-dihydro-2H-benzo[b][1,4]oxazin-8-yl)ethylamino)ethyl)-3-(3-((4-(2-hydroxy-3-phenylpropanoyl)-1-oxa-4,9-diazaspiro[5.5]undecan-9-yl)methyl)phenethoxy)propanamide], the percent of formoterol maximum response at 1 µM on Adrenergic β2 [1] amounted to 89%. Also, the inhibition at 1 µM in assay [2] was found to be 97%.

On to `O=C1COc2c(CCNCCN(C(=O)CCOCCc3cccc(CN4CCC5(CC4)CN(C(=O)COCc4nc6ccccc6s4)CCO5)c3)C3CCCCC3)ccc(O)c2N1` [Example 126, 3-(3-((4-(2-(Benzo[d]thiazol-2-ylmethoxy)acetyl)-1-oxa-4,9-diazaspiro[5.5]undecan-9-yl)methyl)phenethoxy)-N-cyclohexyl-N-(2-(2-(5-hydroxy-3-oxo-3,4-dihydro-2H-benzo[b][1,4]oxazin-8-yl)ethylamino)ethyl)propanamide], for which the percent of formoterol maximum response at 1 µM at Adrenergic β2 [1] is 103%. Moreover, in assay [2], the inhibition at 1 µM stood at 101%.

Consider `O=C1COc2c(CCNCCN(C(=O)CCOCCc3cccc(CN4CCC5(CC4)CN(C(=O)[C@H](O)c4cccc(Cl)c4)CCO5)c3)C3CCCCC3)ccc(O)c2N1` [Example 130, (R)-3-(3-((4-(2-(3-Chlorophenyl)-2-hydroxyacetyl)-1-oxa-4,9-diazaspiro[5.5]undecan-9-yl)methyl)phenethoxy)-N-cyclohexyl-N-(2-(2-(5-hydroxy-3-oxo-3,4-dihydro-2H-benzo[b][1,4]oxazin-8-yl)ethylamino)ethyl)propanamide], for which the percent of formoterol maximum response at 1 µM on Adrenergic β2 [1] worked out at 114%. Also, in assay [2], the inhibition at 1 µM is 99%.

For `Cc1ccccc1CN(CCNCCc1ccc(O)c2c1OCC(=O)N2)C(=O)CCOCCc1cccc(CN2CCC3(CC2)CN(C(=O)c2csc(C(C)C)n2)CCO3)c1F` [Example 21, 3-(2-Fluoro-3-((4-(2-isopropylthiazole-4-carbonyl)-1-oxa-4,9-diazaspiro[5.5]undecan-9-yl)methyl)phenethoxy)-N-(2-(2-(5-hydroxy-3-oxo-3,4-dihydro-2H-benzo[1)][1,4]oxazin-8-yl)ethylamino)ethyl)-N-(2-methylbenzyl)propanamide ditrifluoroacetate], at Adrenergic β2 [3], the EC50 was 63.1 nM and the “β2 Intrinsic Activity” value was found to be 1.1. The compound also showed an IC50 in assay [4] of 0.316 nM.

With `CCCN(CCNCCc1ccc(O)c2c1OCC(=O)N2)C(=O)CCOCCc1cccc(CN2CCC3(CC2)CN(C(=O)c2csc(C(C)C)n2)CCO3)c1Cl` [Example 29, 3-(2-Chloro-3-((4-(2-isopropylthiazole-4-carbonyl)-1-oxa-4,9-diazaspiro[5.5]undecan-9-yl)methyl)phenethoxy)-N-(2-(2-(5-hydroxy-3-oxo-3,4-dihydro-2H-benzo[b][1,4]oxazin-8-yl)ethylamino)ethyl)-N-propylpropanamide ditrifluoroacetate], on Adrenergic β2 [3], the EC50 was 39.8 nM and the “β2 Intrinsic Activity” value was 0.9. For the same compound, the IC50 in assay [4] was 1.26 nM.

For the compound `CC(C)c1nc(C(=O)N2CCOC3(CCN(Cc4cccc(SCCCOCCC(=O)N(CCNCCc5ccc(O)c6c5OCC(=O)N6)C5CCCC5)c4)CC3)C2)cs1` [Example 54, N-Cyclopentyl-N-(2-(2-(5-hydroxy-3-oxo-3,4-dihydro-2H-benzo[b][1,4]oxazin-8-yl)ethylamino)ethyl)-3-(3-(3-((4-(2-isopropylthiazole-4-carbonyl)-1-oxa-4,9-diazaspiro[5.5]undecan-9-yl)methyl)phenylthio)propoxy)propanamide ditrifluoroacetate], at Adrenergic β2 [3], the EC50 was 100 nM and the “β2 Intrinsic Activity” value amounted to 0.9. This compound gave an IC50 in assay [4] of 0.1 nM.

Take `CC(C)c1nc(C(=O)N2CCOC3(CCN(Cc4cccc(CCOCCC(=O)N(CCNCCc5ccc(O)c6c5OCC(=O)N6)[C@H](C)C(C)(C)C)c4F)CC3)C2)cs1` [Example 19, (R)—N-(3,3-Dimethylbutan-2-yl)-3-(2-fluoro-3-((4-(2-isopropylthiazole-4-carbonyl)-1-oxa-4,9-diazaspiro[5.5]undecan-9-yl)methyl)phenethoxy)-N-(2-(2-(5-hydroxy-3-oxo-3,4-dihydro-2H-benzo[b][1,4]oxazin-8-yl)ethylamino)ethyl)propanamide ditrifluoroacetate]: at Adrenergic β2 [3], the EC50 was 50.1 nM and the “β2 Intrinsic Activity” value worked out at 0.9. In assay [4], the IC50 is 0.631 nM.

On to `CC(C)c1nc(C(=O)N2CCOC3(CCN(Cc4cccc(CCOCCC(=O)N(CCNCCc5ccc(O)c6[nH]c(=O)sc56)C5CCOCC5)c4F)CC3)C2)cs1` [Example 11, 3-(2-Fluoro-3-((4-(2-isopropylthiazole-4-carbonyl)-1-oxa-4,9-diazaspiro[5.5]undecan-9-yl)methyl)phenethoxy)-N-(2-(2-(4-hydroxy-2-oxo-2,3-dihydrobenzo[d]thiazol-7-yl)ethylamino)ethyl)-N-(tetrahydro-2H-pyran-4-yl)propanamide ditrifluoroacetate], for which, on Adrenergic β2 [3], the EC50 was 79.4 nM and the “β2 Intrinsic Activity” value worked out at 1.1. This compound gave an IC50 in assay [4] of 0.316 nM.
